Test results: patent US7402575B2, “Methods of treating inflammation” (priority 2003, dated 2008)

Tests used:
Type in all cases: cell-based, dog
[1] = test system: nitric-oxide guanosine 3′,5′cyclic monophosphate pathway; experiment: Effect of NOS, guanylyl cyclase and PKG inhibitors on lysozyme's myocardial depressant effect in right ventricular trabecular preparation; conditions: for Effect on lysozyme's myocardial depressant effect: muscle incubated with inhibitor about one hour before lysozyme
Procedure: (§1) The right ventricular trabecular preparation used in this study has previously been described. Briefly, mongrel dogs (3 to 10 kg) were anesthetized with pentobarbital. The hearts were removed, flushed with 50 ml of Krebs-Henseleit solution (KH), and placed in ice-cold KH bubbled with a mixture of 95% O2 and 5% CO2. Three to four thin trabeculae (<1 mm diameter) were obtained from the right ventricle and were tied at each end with 6-O silk thread. Each thin muscle was suspended in a 5 ml vertical constant temperature bath that contained KH. The muscle was stimulated electrically via punctate platinum bipolar electrodes with rectangular pulses (1 ms duration) at an intensity of 50% above threshold delivered at intervals of 2,000 ms. The trabeculae were stretched to optimal length.
The plasma concentration of lysozyme attained in the inventors' sepsis model is approximately 10^−8M, and the 10^−7M to 10^−9M range was used in the experiments described below. Lysozyme was purified from the spleens of nonseptic dogs as previously described. Measurements were obtained at 5 minute intervals.
In one group of experiments, the non-specific nitric oxide synthase inhibitor N^G-monomethyl-L-arginine (L-LNMMA) was used to determine whether it could inhibit the depressant effect of lysozyme. The muscle was incubated with L-NMMA (10^−3M) for approximately one hour after which lysozyme was instilled into the preparation. As a negative control group, ventricular trabeculae were incubated with D-NMMA after which lysozyme was instilled. With the D-isomer, no inhibition of lysozyme's effect would be expected.
In separate experiments, the respective roles of eNOS, nNOS, and iNOS were evaluated in which the objective was to determine which of the NOS isoforms was responsible for the myocardial depression observed with lysozyme. The relatively specific inhibitors for eNOS (L-NIO.2HCl [L-N^5-(1-[Iminoethyl)-ornithine.2HCl], nNOS (N-ω-Propyl-L-arginine [N^5-[Imino(propylamino)methyl]-L-ornithine], and iNOS (1400W.dihydrochloride [N-(3-aminomethyl)benzyl)acetamidine.2HCl] were compared in respective experiments in which a range of concentrations of either NOS inhibitor was used.
In other experiments, the muscle was incubated ODQ (10^−3M) or the PKG inhibitor (Rp-8-Br-cGMP) for one hour. The effect of lysozyme on isometric tension was compared to trabeculae without the respective inhibitors.
The results are expressed as a percent of baseline isometric tension. Statistical analyses included two-way analysis of variance and Student Newman Keuls' multiple comparison test. The results are reported as mean (±SD).

[2] = target: T1, lysozyme c (Lzm-S) (Canis lupus familiaris, UniProt P81709); experiment: Inhibition of Lzm-S's myocardial depressant activity (isometric tension) in right ventricular trabecular preparation; conditions: for Isometric tension following pre-treatment with sugar: sugar 10^−3M added before Lzm-S; for Inhibition of Lzm-S's depressant effect on isometric tension: inhibitor 10^−3M added before Lzm-S, paced 0.5 Hz
T1 construct: Lzm-S was purified in a manner described by Grobler et al (14); from tissue
T1 sequence (P81709 1-130): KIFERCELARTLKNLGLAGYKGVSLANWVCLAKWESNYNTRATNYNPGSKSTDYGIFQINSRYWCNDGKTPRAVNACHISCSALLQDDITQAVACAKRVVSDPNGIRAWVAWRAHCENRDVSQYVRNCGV
Procedure: In subsequent experiments, the objective was to determine whether pretreatment of Lzm-S with the proteolytic enzyme proteinase-K reduced the extent to which myocardial depression developed in the in vitro preparation (7). Proteinase-K (attached to beaded agarose; Sigma Chemical, St Louis, Mo.) was added to the pure Lzm-S preparation. The effects of proteinase-K treated and nontreated Lzm-S on isometric tension were compared between the samples. Since proteinase-K is a non-specific proteolytic enzyme, a specific competitive inhibitor of lysozyme, TAC (chitotriose) was subsequently examined to determine whether it prevented the depression in isometric tension observed in the in vitro preparation (16,17).
In one set of experiments, it was determined whether TAC prevented the reduction in tension observed with Lzm-S. A dose of 10^−3M TAC (based on preliminary experiments) was added to the organ bath before the addition of Lzm-S. Lzm-S was then added to bring the final concentrations to 10^−10M, 10^−9M, 10^−8M, and 10^−7M in sequential steps. In a related set of experiments, the effect of TAC was studied under a similar protocol in which the ventricular trabecular preparation was paced at 1 Hz instead of 0.5 Hz. The objective was to determine whether the higher frequency altered the inhibitory response of TAC. In a third set of experiments, the sequence of adding TAC and Lzm-S was reversed. Lzm-S (10^−7M) was initially added to the preparation, after which TAC at bath concentrations of 10^−6M, 10^−5M, 10^−4M, 10^−3M were sequentially added. The objective was to determine whether TAC could attenuate the effect of Lzm-S on reducing the isometric response after an initial depression in isometric tension had already been attained.
as §1, with “(RV)” for “trabecular”, “also” for “previously”, “described (49,6).” for “described.”, “a” for “a 5 ml”, “bath (5 ml)” for “bath”, “KH (in mM: NaCl, 118; KCl, 4.7; CaCl2 2.5; MgSO4, 1.2; KH2PO4, 1.4; NaHCO3, 25; and dextrose, 11).” for “KH.”
Inhibitory activities of N-acetylglucosamine (NAG), N,N′ diacetylglucosamine (NAG-NAG: N,N′ diacetylchitobiose), and N,N′,N″,N′″ tetraacetylglucosamine (NAG-NAG-NAG-NAG: N,N′,N″,N′″-tetraacetylchitotetraose) were examined (Sigma Corp Canada, Oakville Ontario). These are structurally similar to TAC, but have a different number of NAG units (17). Two somewhat related sugars were also examined to see if there was potential for blocking the activity of lysozyme. These included D-cellotriose and N-aceytllactosamine. D-cellotriose includes three glucose residues linked by beta (1-4) glycosidic linkages, while N acetyllactosamine includes N-acetylglucosamine and galactose residues linked by beta (1-4) glycosidic linkages (12).
After baseline tension was determined, either the sugar or placebo was placed into respective organ baths. The concentration of the sugar used was 10^−3M based on the inventors' previous experiments with TAC 49), while the concentrations of lysozyme were 10^−9, 10^−8, and 10^−7M, respectively. Measurements were obtained at 5 minute intervals. The changes in isometric tension measured from baseline were compared between the treated and placebo baths. […]

[3] = test system: right ventricular trabecular preparation; experiment: Effect of the substance itself on isometric tension in right ventricular trabecular preparation
Procedure: Aliquots of the 10-30 KD plasma fraction (0.05 to 1 ml) were then added to a right ventricular (RV) trabecular preparation to test for the presence of FCS activity. The RV preparation has previously been described (6,7). Briefly, mongrel dogs (3 to 10 kg) were anesthetized with pentobarbital, and their hearts were removed. Three to four thin trabeculae (<1 mm diameter) were obtained from the right ventricle and were suspended in a vertical constant temperature bath (5 ml) that contained Krebs Henseleit (KH) solution. The muscle was stimulated electrically at 0.5 Hz. Aliquots of plasma fractions (from 0.05 to 1 ml) were added to respective organ baths at 5 minute intervals. The changes observed in the pre and septic plasma fractions were expressed relative to tensions found at baseline (i.e. prior to the addition of the sample). An increase in the depressant activity in the septic plasma fraction relative to that found in the presepsis sample was indicative of an increase in FCS.
The effect of purified Lzm-S on myocardial depression was then studied in the ventricular trabecular preparation. In initial experiments, the objective was to compare Lzm-S prepared from septic and nonseptic spleens to see if there was any difference between the two preparations. Although no differences were apparent by SDS-PAGE gel, different isoforms of the enzyme could have developed in sepsis thereby increasing its potential to cause myocardial depression. Aliquots of the septic and nonseptic preparations were added (at 5 minute intervals) to respective organ baths, and the changes in isometric tension were then compared between Lzm-S obtained from spleens of septic and nonseptic animals.
The right ventricular (RV) preparation used in this study has also been described (49,6). Briefly, mongrel dogs (3 to 10 kg) were anesthetized with pentobarbital. The hearts were removed, flushed with 50 ml of Krebs-Henseleit solution (KH), and placed in ice-cold KH bubbled with a mixture of 95% O2 and 5% CO2. […]
After baseline tension was determined, either the lectin or placebo was placed into respective organ baths. […]

Row | SMILES | Effect on lysozyme's myocardial depressant effect [1] | Isometric tension following pre-treatment with sugar ([2]; Lzm-S 10^−7M) | Isometric tension following pre-treatment with sugar ([2]; Lzm-S 10^−8M) | Isometric tension following pre-treatment with sugar ([2]; Lzm-S 10^−9M) | Inhibition of Lzm-S's depressant effect on isometric tension [2] | other results
1 | O=c1c2nc(Br)n(C3OC4COP([O-])(=S)OC4C3O)c2nc2[nH]c(-c3ccccc3)cn12.[Na+] (single isomer, unassigned) [Rp-8-Br-cGMP, guanosine 3′,5′-cyclic monophosphorothioate, β-phenyl-1, N^2-etheno-8-bromo-Pp-isomer, sodium salt] | blocked | – | – | – | – | –
2 | CC(=O)N[C@H]1C(O)O[C@H](CO)[C@@H](O)[C@@H]1O (stereo partly shown) [N-acetylglucosamine] | – | 44±2 % of baseline | 61±4.5 % of baseline | 85±2 % of baseline | neither N-acetylglucosamine (NAG), N-acetyllactosamine nor cellotriose had inhibitory properties | –
3 | CNC(=N)NCCCC(N)C(=O)O [D-NMMA] | no inhibition | – | – | – | – | –
4 | CC(=O)N[C@H]1[C@H](O[C@H]2[C@H](O)[C@@H](NC(C)=O)C(O)O[C@@H]2CO)O[C@H](CO)[C@@H](O[C@@H]2O[C@H](CO)[C@@H](O[C@@H]3O[C@H](CO)[C@@H](O)[C@H](O)[C@H]3NC(C)=O)[C@H](O)[C@H]2NC(C)=O)[C@@H]1O (stereo partly shown) [tetraacetylchitotetraose, N,N′,N″,N′″ tetraacetylglucosamine] | – | – | – | – | no inhibitory effect | Inhibition of Lzm-S's depressant effect on isometric tension ([2]; listed as N,N′,N″,N′″ tetraacetylchitotetraose): no inhibitory effect on lysozyme's depressant activity
5 | OCC1OC(OC2C(CO)OC(OC3C(CO)OC(O)C(O)C3O)C(O)C2O)C(O)C(O)C1O [cellotriose, D-cellotriose] | – | 58±17 % of baseline | 79±13 % of baseline | 84±9 % of baseline | neither N-acetylglucosamine (NAG), N-acetyllactosamine nor cellotriose had inhibitory properties | –
6 | CNC(=N)NCCC[C@H](N)C(=O)O [L-NMMA, N^G-monomethyl-L-arginine, reference compound] | markedly attenuated | – | – | – | – | Effect of the substance by itself on isometric tension [3]: no change in isometric tension
7 | CC(=O)N[C@H]1C(O)O[C@H](CO)[C@@H](O[C@@H]2O[C@H](CO)[C@H](O)[C@H](O)[C@H]2O)[C@@H]1O (stereo partly shown) [N-acetyllactosamine] | – | 48±1 % of baseline | 55±1 % of baseline | 60±0 % of baseline | neither N-acetylglucosamine (NAG), N-acetyllactosamine nor cellotriose had inhibitory properties | –
8 | CC(=N)NCCC[C@H](N)C(=O)O.Cl.Cl [eNOS] | most potent in the prevention of lysozyme's myocardial depressant effect | – | – | – | – | Concentration of the NOS inhibitor at which lysozyme's depressant effect was prevented [1]: 10^−8 M
9 | N=C(N)NCCC[C@H](N)C(=O)O [L-arginine] | – | – | – | – | – | Effect on the inhibition by L-NMMA [1]: able to competively overcome the effect of L-NMMA
10 | O=c1onc2cnc3ccccc3n12 [ODQ, 1H-[1,2,4] oxidadiazolo-[4,3-a] quinoxalin-1-one] | blocked | – | – | – | – | –
